# From patent publication US8236784B2, “Composition comprising threitol phosphate and salts thereof” (Sunny Biodiscovery, Inc., priority 2007, dated 2012)
# Test system: adult human epidermal keratinocytes (aHEK)
# Test: Proliferation of adult human epidermal keratinocytes (aHEK)
# Type: cell-based
# Conditions: 100 ug/ml; vs water (0 μg/ml)
# Description: Example 3(e): FIG. 6 depicts the effect of threitol-1 diphosphate on the proliferation of adult human epidermal keratinocytes (aHEK).
smiles,measurement,value
"O=P(O)(O)OP(=O)(O)OC[C@@H](O)[C@H](O)CO [DP sSBD4, threitol-1-diphosphate]",stimulation of human adult epidermal keratinocyte proliferation,17%
